Experimental data published in publication PMC10477886, “Adamantaniline Derivatives Target ATP5B to Inhibit Translation of Hypoxia Inducible Factor‐1α” (Advanced Science, 2023).

Tested on: HIF‐1α transcriptional activity
Assay: dual‐luciferase assay (HRE‐Firefly Luciferase / renilla) of HIF‐1α transcriptional activity in HEK293T cells
Assay type: cell-based, human
Settings: Homo sapiens, HEK-293T, mean ± s.d. (n = 3); for inhibition at 10 µM: incubation 24 h, HEK293T, read-out: Inhibition rate [%] @ 10 µM; for IC50: HEK293T dual‐luciferase
Excerpt: To screen HIF‐1α inhibitors in a robust cell‐based assay, we optimized the dual‐luciferase assay with pLenti‐HIF‐1αP2A (P402A and P564A) instead of pLenti‐HIF‐1α in order to ensure the expression of HIF‐1α under normoxia condition. In the cell‐based assay, HEK293T cells were co‐transfected with pLenti‐HIF‐1αP2A, renilla, and hypoxia‐responsive element (HRE)‐Firefly Luciferase (Figure S1, Supporting Information). […] Three compounds were selected as the positive controls including two inhibitors (PX‐478 2HCl and BAY 87‐2243) and an activator (BAY 85‐3934) in the screening assay.
HEK293T cells were stably transfected with reporter plasmids pGMLV‐HRE‐LUC‐puromycin, pMSCV‐renilla‐hygromycin, and pLenti‐HIF‐1αP2A‐neomycin. Stable cell line constructed above, 293‐HIF‐1αP2A‐HRE‐Fluc‐Rluc, were seeded in 384‐well plates and cultured in DMEM with 10% FBS. The following day, the cells were pretreated with indicated chemical compounds from the National Compound Library of the Shanghai Institute of Materia Medica, Chinese Academy of Sciences by Mosquito HTS. The plate was then placed in an incubator chamber and incubated at 37 °C for 24 h. The ratio of firefly/renilla luciferase activity was determined by using the Envision (PerkinElmer).
Stable cell line 293‐HRE‐Fluc‐Rluc expressed luciferase and renilla or HEK293T cells transfected with indicated plasmids (pGL3‐HRE‐luciferase and pSV40‐renilla) were seeded in a 96‐well plate. The cells were co‐incubated with indicated compounds for 24 h and luciferase activities were detected in Microplate Reader (BioTek SYNEGRY H1) using the Dual Luciferase Reporter Assay System Kit (Promega, USA E1910) according to the manufacturer's instruction. The relative Luc activity was normalized by renilla activity. Three independent experiments were performed, and the calculated means and SDs are presented.

| IC50 [nM] | SMILES | inhibition at 10 µM [%] |
| --- | --- | --- |
| – | O=C(Nc1ccc(C23CC4CC(CC(C4)C2)C3)cc1)c1ccccc1C(F)(F)F [1‐3ad, N‐(4‐((3r,5r,7r)‐Adamantan‐1‐yl)Phenyl)−2‐(Trifluoromethyl)Benzamide] | 31.3 ± 3.3 |
| – | O=C(Nc1ccc(C23CC4CC(CC(C4)C2)C3)cc1)c1cccc(C(F)(F)F)c1 [1‐3ae, N‐(4‐((3r,5r,7r)‐Adamantan‐1‐yl)Phenyl)−3‐(Trifluoromethyl)Nenzamide] | 20.2 ± 1.5 |
| – | O=C(Nc1ccc(C23CC4CC(CC(C4)C2)C3)cc1)c1ccc(C(F)(F)F)cc1 [1‐3af, N‐(4‐((3r,5r,7r)‐Adamantan‐1‐yl)Phenyl)−4‐(Trifluoromethyl)Benzamide] | 37.9 ± 0.7 |
| – | O=C(Nc1ccc(C23CC4CC(CC(C4)C2)C3)cc1)c1ccc(N2CCOCC2)cc1 [1‐3ag, N‐(4‐((3r,5r,7r)‐Adamantan‐1‐yl)Phenyl)−4‐Morpholinobenzamide] | 41.6 ± 8.9 |
| – | O=C(Nc1ccc(C23CC4CC(CC(C4)C2)C3)cc1)c1ccc(N2CCCC2)cc1 [1‐3ah, N‐(4‐((3r,5r,7r)‐Adamantan‐1‐yl)Phenyl)−4‐(Pyrrolidin‐1‐yl)Benzamide] | 66.5 ± 0.9 |
| – | CCCCCCOc1ccccc1C(=O)Nc1ccc(C23CC4CC(CC(C4)C2)C3)cc1 [1‐3ai, N‐(4‐((3r,5r,7r)‐Adamantan‐1‐yl)Phenyl)−2‐(Hexyloxy)Benzamide] | 28.2 ± 5.5 |
| – | CCCCCCOc1cccc(C(=O)Nc2ccc(C34CC5CC(CC(C5)C3)C4)cc2)c1 [1‐3aj, N‐(4‐((3r,5r,7r)‐Adamantan‐1‐yl)Phenyl)−3‐(Hexyloxy)Benzamide] | 28.4 ± 6.9 |
| – | CCCCCCCCc1ccc(C(=O)Nc2ccc(C34CC5CC(CC(C5)C3)C4)cc2)cc1 [1‐3ak, N‐(4‐((1s,3s)‐Adamantan‐1‐yl)Phenyl)−4‐Octylbenzamide] | 32.5 ± 7.2 |
| 1000 ± 100 | O=C(CCCCBr)Nc1cccc(C(=O)Nc2ccc(C34CC5CC(CC(C5)C3)C4)cc2)c1 [1‐3al, N‐(4‐((1s,3s)‐Adamantan‐1‐yl)Phenyl)−3‐(5‐Bromopentanamido)Benzamide] | 89.5 ± 1.1 |
| 1300 ± 200 | CN1CCN(CCCCC(=O)Nc2cccc(C(=O)Nc3ccc(C45CC6CC(CC(C6)C4)C5)cc3)c2)CC1 [1‐3am, N‐(4‐((1s,3s)‐Adamantan‐1‐yl)Phenyl)−3‐(5‐(4‐Methylpiperazin‐1‐yl)Pentanamido)Benzamide] | 86.4 ± 0.9 |
| 370 ± 40 | O=C(CCCCN1CCOCC1)Nc1cccc(C(=O)Nc2ccc(C34CC5CC(CC(C5)C3)C4)cc2)c1 [1‐3an, N‐(4‐((1s,3s)‐Adamantan‐1‐yl)Phenyl)−3‐(5‐Morpholinopentanamido)Benzamide] | 93.4 ± 0.5 |
| 2300 ± 500 | O=C(CCCCBr)Nc1ccc(C(=O)Nc2ccc(C34CC5CC(CC(C5)C3)C4)cc2)cc1 [1‐3ao, N‐(4‐((3r,5r,7r)‐Adamantan‐1‐yl)Phenyl)−4‐(5‐Bromopentanamido)Benzamide] | 82.9 ± 2.4 |
| 1400 ± 500 | CN1CCN(CCCCC(=O)Nc2ccc(C(=O)Nc3ccc(C45CC6CC(CC(C6)C4)C5)cc3)cc2)CC1 [1‐3ap, N‐(4‐((3r,5r,7r)‐Adamantan‐1‐yl)Phenyl)−4‐(5‐(4‐Methylpiperazin‐1‐yl)Pentanamido)Benzamide] | 88.8 ± 0.2 |
| – | O=C(CCCCN1CCOCC1)Nc1ccc(C(=O)Nc2ccc(C34CC5CC(CC(C5)C3)C4)cc2)cc1 [1‐3aq, N‐(4‐((3r,5r,7r)‐Adamantan‐1‐yl)Phenyl)−4‐(5‐Morpholinopentanamido)Benzamide] | 69.5 ± 0.5 |
| 2100 ± 400 | CN(C)CCCC(=O)Nc1cccc(C(=O)Nc2ccc(C34CC5CC(CC(C5)C3)C4)cc2)c1 [1‐3ar, N‐(4‐((3r,5r,7r)‐Adamantan‐1‐yl)Phenyl)−3‐(4‐(Dimethylamino)Butanamido)Benzamide] | 79.4 ± 1.8 |
| 2500 ± 700 | C[N+](C)(C)CCCC(=O)Nc1cccc(C(=O)Nc2ccc(C34CC5CC(CC(C5)C3)C4)cc2)c1 [1‐3as, 4‐((3‐((4‐((3r,5r,7r)‐Adamantan‐1‐yl)Phenyl)Carbamoyl)Phenyl)Amino)‐N,N,N‐Trimethyl‐4‐Oxobutan‐1‐Aminium] | 76.4 ± 1.3 |
| 940 ± 20 | CN(C)CCCC(=O)Nc1ccc(C(=O)Nc2ccc(C34CC5CC(CC(C5)C3)C4)cc2)cc1 [1‐3at, N‐(4‐((3r,5r,7r)‐Adamantan‐1‐yl)Phenyl)−4‐(4‐(Dimethylamino)Butanamido)Benzamide] | 90 ± 1.7 |
| – | O=C(Nc1ccc(C23CC4CC(CC(C4)C2)C3)cc1)c1ccccc1Cl [1‐3b, N‐(4‐((3r,5r,7r)‐Adamantan‐1‐yl)Phenyl)−2‐Chlorobenzamide] | 58.4 ± 1.5 |
| – | O=C(Nc1ccc(C23CC4CC(CC(C4)C2)C3)cc1)c1ccc(Cl)cc1 [1‐3c, N‐(4‐((3r,5r,7r)‐Adamantan‐1‐yl)Phenyl)−4‐Chlorobenzamide] | 63.4 ± 5.4 |

| IC50 [nM] | SMILES | inhibition at 10 µM [%] |
| --- | --- | --- |
| – | O=C(Nc1ccc(C23CC4CC(CC(C4)C2)C3)cc1)c1ccccc1Br [1‐3d, N‐(4‐((3r,5r,7r)‐Adamantan‐1‐yl)Phenyl)−2‐Bromobenzamide] | 52.3 ± 3.1 |
| 1400 ± 300 | O=C(Nc1ccc(C23CC4CC(CC(C4)C2)C3)cc1)c1cccc(Br)c1 [1‐3e, N‐(4‐((3r,5r,7r)‐Adamantan‐1‐yl)Phenyl)−3‐Bromobenzamide] | 86.3 ± 0.2 |
| – | O=C(Nc1ccc(C23CC4CC(CC(C4)C2)C3)cc1)c1ccc(Br)cc1 [1‐3f, N‐(4‐((3r,5r,7r)‐Adamantan‐1‐yl)Phenyl)−4‐Bromobenzamide] | 67.1 ± 5.1 |
| – | COc1ccccc1C(=O)Nc1ccc(C23CC4CC(CC(C4)C2)C3)cc1 [1‐3g, N‐(4‐((3r,5r,7r)‐Adamantan‐1‐yl)Phenyl)−2‐Methoxybenzamide] | 40.2 ± 2.1 |
| 820 ± 130 | COc1cccc(C(=O)Nc2ccc(C34CC5CC(CC(C5)C3)C4)cc2)c1 [1‐3h, N‐(4‐((3r,5r,7r)‐Adamantan‐1‐yl)Phenyl)−3‐Methoxybenzamide] | 92.1 ± 0.6 |
| 1600 ± 300 | COc1ccc(C(=O)Nc2ccc(C34CC5CC(CC(C5)C3)C4)cc2)cc1 [1‐3i, N‐(4‐((3r,5r,7r)‐Adamantan‐1‐yl)Phenyl)−4‐Methoxybenzamide] | 86 ± 1.4 |
| – | N#Cc1ccccc1C(=O)Nc1ccc(C23CC4CC(CC(C4)C2)C3)cc1 [1‐3j, N‐(4‐((3r,5r,7r)‐Adamantan‐1‐yl)Phenyl)−2‐Cyanobenzamide] | 41.8 ± 3.4 |
| – | N#Cc1cccc(C(=O)Nc2ccc(C34CC5CC(CC(C5)C3)C4)cc2)c1 [1‐3k, N‐(4‐((3r,5r,7r)‐Adamantan‐1‐yl)Phenyl)−3‐Cyanobenzamide] | 67.4 ± 3.8 |
| – | N#Cc1ccc(C(=O)Nc2ccc(C34CC5CC(CC(C5)C3)C4)cc2)cc1 [1‐3l, N‐(4‐((3r,5r,7r)‐Adamantan‐1‐yl)Phenyl)−4‐Cyanobenzamide] | 61.2 ± 5.5 |
| 510 ± 20 | O=C(Nc1ccc(C23CC4CC(CC(C4)C2)C3)cc1)c1ccccc1O [1‐3m, N‐(4‐((3r,5r,7r)‐Adamantan‐1‐yl)Phenyl)−2‐Hydroxybenzamide] | 88.4 ± 0.2 |
| 53 ± 8 | O=C(Nc1ccc(C23CC4CC(CC(C4)C2)C3)cc1)c1ccc(O)cc1 [1‐3o, N‐(4‐((3r,5r,7r)‐Adamantan‐1‐yl)Phenyl)−4‐Hydroxybenzamide] | 96.4 ± 0.2 |
| – | CC(C)(C)OC(=O)Nc1ccccc1C(=O)Nc1ccc(C23CC4CC(CC(C4)C2)C3)cc1 [1‐3p, Tert‐Butyl 2‐(2‐((4‐((3r,5r,7r)‐Adamantan‐1‐yl)Phenyl)Carbamoyl)Phenyl)Carbamate] | 40.3 ± 3.2 |
| 3500 ± 200 | CC(C)(C)OC(=O)Nc1cccc(C(=O)Nc2ccc(C34CC5CC(CC(C5)C3)C4)cc2)c1 [1‐3q, Tert‐Butyl (3‐((4‐((3r,5r,7r)‐Adamantan‐1‐yl)Phenyl)Carbamoyl)Phenyl)Carbamate] | 75.5 ± 0.3 |
| – | CC(C)(C)OC(=O)Nc1ccc(C(=O)Nc2ccc(C34CC5CC(CC(C5)C3)C4)cc2)cc1 [1‐3r, Tert‐Butyl (4‐((4‐((3r,5r,7r)‐Adamantan‐1‐yl)Phenyl)Carbamoyl)Phenyl)Carbamate] | 54.6 ± 1.6 |
| 540 ± 20 | Nc1ccccc1C(=O)Nc1ccc(C23CC4CC(CC(C4)C2)C3)cc1 [1‐3s, N‐(4‐((3r,5r,7r)‐Adamantan‐1‐yl)Phenyl)−2‐Aminobenzamide] | 90.4 ± 1.7 |
| 230 ± 30 | Nc1cccc(C(=O)Nc2ccc(C34CC5CC(CC(C5)C3)C4)cc2)c1 [1‐3t, N‐(4‐((3r,5r,7r)‐Adamantan‐1‐yl)Phenyl)−3‐Aminobenzamide] | 97.3 ± 0.4 |
| 110 ± 10 | Nc1ccc(C(=O)Nc2ccc(C34CC5CC(CC(C5)C3)C4)cc2)cc1 [1‐3u, N‐(4‐((3r,5r,7r)‐Adamantan‐1‐yl)Phenyl)−4‐Aminobenzamide] | 98.4 ± 0.1 |
| – | CC(=O)Nc1ccccc1C(=O)Nc1ccc(C23CC4CC(CC(C4)C2)C3)cc1 [1‐3v, 2‐Acetamido‐N‐(4‐((3r,5r,7r)‐Adamantan‐1‐yl)Phenyl)Benzamide] | 18.4 ± 2.2 |
